Numbers after ± are expanded uncertainties.

The results in this text go back to the NIST ThermoML archive (doi:10.1016/j.jct.2015.08.033).

The conditions of series [1]: 100 kPa, Liquid; for speed of sound: Frequency=3 MHz, Sing-around technique in a fixed-path interferometer; for mass density: Vibrating tube method.
Series [2] can be described thus: mn = molality of the nth substance listed, in mol/kg. The conditions noted are these: 100 kPa, Liquid, m2 = 0; for speed of sound: Frequency=3 MHz, Sing-around technique in a fixed-path interferometer; for mass density: Vibrating tube method.

Turning to `CC(=O)N(C)C` [N,N-dimethylethanamide], the speed of sound amounted to 1455.8 ± 1.3 m/s in series [1] (298.15 K); 1436 ± 1.3 m/s in series [1] (303.15 K); 1416.1 ± 1.3 m/s in series [1] (308.15 K); 1396.5 ± 1.3 m/s in series [1] (313.15 K); 1376.9 ± 1.3 m/s in series [1] (318.15 K). In addition, the mass density in series [1] (298.15 K) came out at 936.281 ± 0.14 kg/m3; in series [1] (303.15 K), 931.672 ± 0.14 kg/m3; in series [1] (308.15 K) it was 927.055 ± 0.14 kg/m3; in series [1] (313.15 K) it was 922.422 ± 0.14 kg/m3; in series [1] (318.15 K), 917.788 ± 0.14 kg/m3.

As for `CC(=O)N(C)C` [N,N-dimethylethanamide] + O=S(=O)([O-])C(F)(F)F.O=S(=O)([O-])C(F)(F)F.[Ca+2], the speed of sound turned out to be 1455.7 ± 1.3 m/s in series [2] (298.15 K); 1435.9 ± 1.3 m/s in series [2] (303.15 K); 1416.1 ± 1.3 m/s in series [2] (308.15 K); 1396.5 ± 1.3 m/s in series [2] (313.15 K); 1376.9 ± 1.3 m/s in series [2] (318.15 K). Further, the mass density in series [2] (298.15 K) was 936.279 ± 0.45 kg/m3; in series [2] (303.15 K), 931.67 ± 0.45 kg/m3; in series [2] (308.15 K) it was 927.058 ± 0.45 kg/m3; in series [2] (313.15 K) it was 922.429 ± 0.45 kg/m3; in series [2] (318.15 K) it was 917.793 ± 0.45 kg/m3.

On to `CC(=O)N(C)C` [N,N-dimethylethanamide] + O=S(=O)([O-])C(F)(F)F.O=S(=O)([O-])C(F)(F)F.[Mg+2], for which the speed of sound in series [2] (298.15 K) was found to be 1455.9 ± 1.3 m/s; in series [2] (303.15 K), 1436 ± 1.3 m/s; in series [2] (308.15 K) it was 1416.2 ± 1.3 m/s; in series [2] (313.15 K), 1396.5 ± 1.3 m/s; in series [2] (318.15 K) it was 1376.9 ± 1.3 m/s. The mass density was 936.279 ± 0.46 kg/m3 in series [2] (298.15 K); 931.67 ± 0.46 kg/m3 in series [2] (303.15 K); 927.047 ± 0.46 kg/m3 in series [2] (308.15 K); 922.416 ± 0.46 kg/m3 in series [2] (313.15 K); 917.78 ± 0.46 kg/m3 in series [2] (318.15 K).

Regarding `CC(=O)N(C)C` [N,N-dimethylethanamide] + O=S(=O)([O-])C(F)(F)F.O=S(=O)([O-])C(F)(F)F.[Sr+2], the speed of sound in series [2] (298.15 K) is recorded as 1455.9 ± 1.3 m/s; in series [2] (303.15 K), 1435.9 ± 1.3 m/s; in series [2] (308.15 K), 1416.1 ± 1.3 m/s; in series [2] (313.15 K), 1396.5 ± 1.3 m/s; in series [2] (318.15 K) it was 1376.9 ± 1.3 m/s. Besides, the mass density in series [2] (298.15 K) was 936.29 ± 0.52 kg/m3; in series [2] (303.15 K), 931.679 ± 0.52 kg/m3; in series [2] (308.15 K) it was 927.058 ± 0.52 kg/m3; in series [2] (313.15 K) it was 922.423 ± 0.52 kg/m3; in series [2] (318.15 K) it was 917.79 ± 0.52 kg/m3.

With `CC(=O)N(C)C` [N,N-dimethylethanamide] + [Ba+2].[O-][Cl+3]([O-])([O-])[O-].[O-][Cl+3]([O-])([O-])[O-], the speed of sound in series [2] (298.15 K) was 1455.9 ± 1.3 m/s; in series [2] (303.15 K), 1436 ± 1.3 m/s; in series [2] (308.15 K), 1416.2 ± 1.3 m/s; in series [2] (313.15 K) it was 1396.5 ± 1.3 m/s; in series [2] (318.15 K), 1376.9 ± 1.3 m/s. In addition, the mass density in series [2] (298.15 K) amounted to 936.277 ± 0.54 kg/m3; in series [2] (303.15 K), 931.67 ± 0.54 kg/m3; in series [2] (308.15 K), 927.058 ± 0.54 kg/m3; in series [2] (313.15 K), 922.423 ± 0.54 kg/m3; in series [2] (318.15 K), 917.79 ± 0.55 kg/m3.

For the compound `CN(C)C=O` [dimethylformamide], the speed of sound in series [1] (298.15 K) is 1457.2 ± 1.3 m/s; in series [1] (303.15 K) it was 1437.9 ± 1.3 m/s; in series [1] (308.15 K) it was 1418.5 ± 1.3 m/s; in series [1] (313.15 K), 1399.3 ± 1.3 m/s; in series [1] (318.15 K), 1380 ± 1.3 m/s. The mass density in series [1] (298.15 K) amounted to 943.913 ± 0.14 kg/m3; in series [1] (303.15 K) it was 939.139 ± 0.14 kg/m3; in series [1] (308.15 K), 934.354 ± 0.14 kg/m3; in series [1] (313.15 K), 929.554 ± 0.14 kg/m3; in series [1] (318.15 K) it was 924.744 ± 0.14 kg/m3.

With `CN(C)C=O` [dimethylformamide] + O=S(=O)([O-])C(F)(F)F.O=S(=O)([O-])C(F)(F)F.[Ca+2], the speed of sound in series [2] (298.15 K) is recorded as 1457.2 ± 1.3 m/s; in series [2] (303.15 K), 1437.9 ± 1.3 m/s; in series [2] (308.15 K), 1418.5 ± 1.3 m/s; in series [2] (313.15 K) it was 1399.2 ± 1.3 m/s; in series [2] (318.15 K), 1380 ± 1.3 m/s. For the same compound, the mass density in series [2] (298.15 K) is given as 943.915 ± 0.44 kg/m3; in series [2] (303.15 K) it was 939.142 ± 0.44 kg/m3; in series [2] (308.15 K), 934.356 ± 0.45 kg/m3; in series [2] (313.15 K), 929.553 ± 0.45 kg/m3; in series [2] (318.15 K), 924.746 ± 0.45 kg/m3.

In the case of `CN(C)C=O` [dimethylformamide] + O=S(=O)([O-])C(F)(F)F.O=S(=O)([O-])C(F)(F)F.[Mg+2], the speed of sound was determined as 1457.1 ± 1.3 m/s in series [2] (298.15 K); 1437.9 ± 1.3 m/s in series [2] (303.15 K); 1418.5 ± 1.3 m/s in series [2] (308.15 K); 1399.2 ± 1.3 m/s in series [2] (313.15 K); 1380 ± 1.3 m/s in series [2] (318.15 K). The mass density in series [2] (298.15 K) is recorded as 943.905 ± 0.43 kg/m3; in series [2] (303.15 K), 939.125 ± 0.43 kg/m3; in series [2] (308.15 K), 934.34 ± 0.43 kg/m3; in series [2] (313.15 K) it was 929.543 ± 0.43 kg/m3; in series [2] (318.15 K), 924.732 ± 0.43 kg/m3.

Turning to `CN(C)C=O` [dimethylformamide] + O=S(=O)([O-])C(F)(F)F.O=S(=O)([O-])C(F)(F)F.[Sr+2], the speed of sound is 1457.2 ± 1.3 m/s in series [2] (298.15 K); 1438 ± 1.3 m/s in series [2] (303.15 K); 1418.6 ± 1.3 m/s in series [2] (308.15 K); 1399.3 ± 1.3 m/s in series [2] (313.15 K); 1380.1 ± 1.3 m/s in series [2] (318.15 K). The mass density in series [2] (298.15 K) turned out to be 943.913 ± 0.51 kg/m3; in series [2] (303.15 K), 939.144 ± 0.51 kg/m3; in series [2] (308.15 K), 934.36 ± 0.51 kg/m3; in series [2] (313.15 K), 929.56 ± 0.51 kg/m3; in series [2] (318.15 K) it was 924.748 ± 0.51 kg/m3.

Consider `CN(C)C=O` [dimethylformamide] + [Ba+2].[O-][Cl+3]([O-])([O-])[O-].[O-][Cl+3]([O-])([O-])[O-], for which the speed of sound stood at 1457.2 ± 1.3 m/s in series [2] (298.15 K); 1437.8 ± 1.3 m/s in series [2] (303.15 K); 1418.5 ± 1.3 m/s in series [2] (308.15 K); 1399.2 ± 1.3 m/s in series [2] (313.15 K); 1380 ± 1.3 m/s in series [2] (318.15 K). Besides, the mass density in series [2] (298.15 K) was 943.919 ± 0.54 kg/m3; in series [2] (303.15 K), 939.144 ± 0.54 kg/m3; in series [2] (308.15 K), 934.36 ± 0.55 kg/m3; in series [2] (313.15 K), 929.56 ± 0.55 kg/m3; in series [2] (318.15 K), 924.748 ± 0.55 kg/m3.
